According to patent publication US5646180A (priority 1995, dated 1997):
Like-named read-outs stand apart in the source and are kept apart here.

How the values were obtained:
[1] = cited from earlier work
oral availability = assay type: in vivo; details: oral administration, mammals
HIV-1 protease = assay: ligand for / inhibition of HIV-1 protease; assay type: biochemical
aqueous solubility = assay type: physicochemical; details: water
[2] = Description: […]. The potential of this compound to be delivered at doses far exceeding its effective antiviral level is advantageous in slowing or preventing the possibility of resistant variants developing.
HIV-1 virus = assay: HIV-1 infection of immortalized human T cells, assay of extracellular p24 antigen; assay type: cell-based; details: over a period of days
Description: Accordingly, the compound is capable of targeting and inhibiting late stage events in HIV replication, i.e., the processing of the viral polyproteins by HIV encoded proteases. […] Because aspartyl protease is essential for the production of mature virions, inhibition of that processing effectively blocks the spread of virus by inhibiting the production of infectious virions, particularly from chronically infected cells. […] Other anti-viral assays have confirmed the potency of this compound.

HIV = assay type: cell-based
HIV-2 protease = assay: ligand for / inhibition of HIV-2 protease; assay type: biochemical
[3] = prior-art HIV drugs, background statement, nucleosides compared with AZT

In the case of CC(C)(C)NC(=O)[C@@H]1CN(Cc2cccnc2)CCN1C[C@@H](O)C[C@@H](Cc1ccccc1)C(=O)N[C@H]1c2ccccc2C[C@H]1O [Compound L-535524], the “CNS distribution / CNS penetration (in words)” value [1, 3] is given as “about the same distribution”.

In the case of CC(C)c1nc(CN(C)C(=O)N[C@H](C(=O)N[C@@H](Cc2ccccc2)C[C@H](O)[C@H](Cc2ccccc2)NC(=O)OCc2cncs2)C(C)C)cs1 [ABT 538], the “CNS distribution / CNS penetration (in words)” value ([1]; in vivo) is listed as “very limited CNS penetration”.

For Cc1cn([C@H]2C=C[C@@H](CO)O2)c(=O)[nH]c1=O [d4T], the “CNS distribution / CNS penetration (in words)” value [1, 3] is listed as “even worse distribution profiles in the CNS”.

In the case of CC(C)CN(CC(O)C(Cc1ccccc1)NC(=O)OC1CCOC1)S(=O)(=O)c1ccc(N)cc1 (stereo not shown) [Compound I], the “oral availability (in words)” value (oral availability) is reported as “surprisingly impressive oral availability”, the “ligand for HIV-1 protease (in words)” value (HIV-1 protease) is reported as “excellent ligand” and the solubility (aqueous solubility) is reported as at least 100 µg/mL. For the same molecule, the “therapeutic index (in words)” value [2] was “impressively high therapeutic index”, the “inhibition of the ability of HIV-1 to infect immortalized human T cells (in words)” value (HIV-1 virus) was “inhibits the ability of the HIV-1 virus to infect immortalized human T cells” and the “combination effect in preventing the replication of HIV in human T cells (in words)” value (HIV) was “acts in an additive or synergistical manner”. For the same molecule, the “ligand for HIV-2 protease (in words)” value (HIV-2 protease) was “excellent ligand”.
